Data as given in PubChem BioAssay (NCI).
Values joined by “and” are separate entries in the source; they are usually repeats but may differ in a detail not shown here. Identical values can stand only once.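 Test compounds were applied to cells in 96-well plates for 48 hours at 5 doses. At the GI50, growth is halved. TGI marks complete inhibition of growth.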

Experiments:
Experiment in all cases: DTP human tumour cell line panel, 48 h
ACHN renal = test system: ACHN renal
NCI-H522 lung = test system: NCI-H522 lung
MOLT-4 leukemia = test system: MOLT-4 leukemia
NCI-H460 lung = test system: NCI-H460 lung
M19-MEL melanoma = test system: M19-MEL melanoma
KM20L2 colon = test system: KM20L2 colon
SK-OV-3 ovarian = test system: SK-OV-3 ovarian
SNB-75 CNS = test system: SNB-75 CNS
SW-620 colon = test system: SW-620 colon
CAKI-1 renal = test system: CAKI-1 renal

Structure (SMILES) | TGI (ACHN renal) [µM] | TGI (NCI-H522 lung) | TGI (MOLT-4 leukemia) [µM] | TGI (NCI-H460 lung) | TGI (M19-MEL melanoma) | TGI (KM20L2 colon) | TGI (SK-OV-3 ovarian) [µM] | TGI (SNB-75 CNS) | TGI (SW-620 colon) | TGI (CAKI-1 renal) | GI50 (NCI-H522 lung) [µM] | GI50 (MOLT-4 leukemia) [µM] | GI50 (NCI-H460 lung) [µM] | GI50 (SK-OV-3 ovarian) [µM] | GI50 (SNB-75 CNS) [µM] | GI50 (SW-620 colon) | GI50 (CAKI-1 renal) [µM] | GI50 (M19-MEL melanoma) [µM] | GI50 (KM20L2 colon) [µM]
O=c1c2cc(Cl)ccc2n2nnc3ccc(NCCNCCO)c1c32 | 2.43 | 3.03 µM | 6.59 | 1.58 µM | 3.28 µM | 2.72 µM | 6.26 | 0.286 µM | 2.51 µM | 4.97 µM | – | – | – | – | – | – | – | – | –
C=C1C(=O)OC2C1CC1OC2C(C)CCC/C(C)=C\CCC1(C)O (stereo not given) | – | 26.2 µM | 21 | 60.9 µM | 29 µM | 81.9 µM | 119 | 51.5 µM | 32.6 µM | 61.4 µM | – | – | – | – | – | – | – | – | –
CC1Oc2c(c(O)cc3oc(=O)cc(-c4ccccc4)c23)C(=O)C1C (stereo not given) | > 100 | > 100 µM | > 100 | > 100 µM | – | > 100 µM | > 100 | > 100 µM | > 100 µM | > 100 µM | – | – | – | – | – | – | – | – | –
O.O=[Se](=O)(O)O.[NH-]C1CCCCC1[NH-].[Pt+2] (stereo not given) | – | > 59.4 µM | > 100 | 38.7 µM | > 75.6 µM | > 100 µM | > 100 | > 83 µM | > 100 µM | 78.6 µM | 13.7 | 2.79 | 3.77 | 64.8 | 16.9 | 2.11 µM | 4.56 | – | –
C#Cc1ccccc1C(=O)OC | > 100 | > 100 µM | > 100 | > 100 µM | – | > 100 µM | > 100 | > 100 µM | > 100 µM | – | – | – | – | – | – | – | – | – | –
O=C1/C(=C/c2ccc(Cl)c(Cl)c2)CN(C(=O)CCN2CCOCC2)C/C1=C\c1ccc(Cl)c(Cl)c1 | – | – | – | – | 3 µM and 2.4 µM | 2.79 µM and 4.01 µM | – | – | 3.32 µM and 0.563 µM and 0.746 µM | 3.4 µM and 3.53 µM and 2.03 µM | – | 0.196 | – | – | – | 1.39 µM and 0.229 µM and 0.249 µM | 0.579 | 1.09 | 1.82
COc1cccc2c1C(=O)c1c(O)c3c(c(O)c1C2=O)C[C@](O)(C(=O)CO)CC3OC1CC(N)C(OC2CCCCO2)C(C)O1 (stereo not given in full) | – | 2.62 µM | 0.0342 | 0.208 µM | – | 4.84 µM | 8.28 | 1.18 µM | 6.48 µM | 18.2 µM | – | – | – | – | – | – | – | – | –
OCC(CO)CC1COc2ccccc2O1 (stereo not given) | > 10 | > 10 µM | > 10 | > 10 µM | – | – | > 10 | > 10 µM | > 10 µM | > 10 µM | – | – | – | – | – | – | – | – | –
C=C(Cl)C(=C)CCC(Cl)C(C)(C)Cl (stereo not given) | > 100 | > 100 µM | > 100 | > 100 µM | – | – | > 100 | > 100 µM | > 100 µM | > 100 µM | – | – | – | – | – | – | – | – | –
c1csc(-c2csc(-c3cccs3)c2)c1 | > 100 | > 100 µM | 89.2 | > 100 µM | – | – | > 100 | > 100 µM | > 100 µM | > 100 µM | – | – | – | – | – | – | – | – | –
CC1=C(C(=O)OC(C)C)C(c2cccc([N+](=O)[O-])c2)C(C(=O)OC(CO[N+](=O)[O-])CO[N+](=O)[O-])=C(C)N1 (stereo not given) | > 100 | 6.77 µM | 3.76 | > 36.7 µM | – | – | > 100 | 43.3 µM | > 100 µM | > 100 µM | – | – | – | – | – | – | – | – | –
CCOC(=O)c1c(C)n(CCN2CCN(C)CC2)c2ccc(OC)cc12 | > 100 | > 100 µM | 68 | > 100 µM | – | – | > 100 | > 100 µM | > 100 µM | > 100 µM | – | – | – | – | – | – | – | – | –
COc1ccc(/C=C(\C#N)c2nc(-c3cc4ccccc4oc3=O)cs2)cc1 | 42.2 | 57.5 µM | > 100 | 57.1 µM | – | – | 36.6 | 59.5 µM | 66.8 µM | > 100 µM | – | – | – | – | – | – | – | – | –
O=C(O)c1cc2c(cc1CC(Cc1ccccc1)C(=O)O)CCC2 (stereo not given) | > 100 | > 100 µM | > 100 | > 100 µM | – | – | > 100 | > 100 µM | > 100 µM | > 100 µM | – | – | – | – | – | – | – | – | –
COc1ccc(/C(Cl)=C(\C=O)c2ccc(Cl)cc2)cc1 | 21.2 | 5.89 µM | 7.81 | > 100 µM | 75.4 µM | 33.2 µM | > 100 | 26.2 µM | > 100 µM | > 100 µM | – | – | – | – | – | – | – | – | –
Oc1cc(Br)cc2cc(Br)cnc12 | 47.4 | 8.2 µM | 16.1 | 22.1 µM | – | – | > 100 | > 100 µM | > 100 µM | 42.6 µM | – | – | – | – | – | – | – | – | –
CCOc1cc(C=Nc2ccc(Oc3ccc(Cl)cc3)c(Cl)c2)ccc1O | > 100 | 31.9 µM | 67.3 | 43.2 µM | – | – | 58.3 | 45.7 µM | > 100 µM | 59.4 µM | – | – | – | – | – | – | – | – | –
Nc1ncnc2c(C3OC(CO)C(O)C3O)c[nH]c12 (stereo not given) | – | 0.0601 µM and 0.0389 µM | – | 0.048 µM and 0.0128 µM | 0.196 µM and 0.423 µM | 1.1 µM | – | 0.0984 µM and 0.459 µM | – | 0.402 µM | – | – | – | – | – | – | – | – | –
COc1cc2c(cc1OCc1ccccc1)NC(=O)[C@@H]1C[C@@H](O)CN1C2=O | > 100 | > 100 µM | > 100 | > 100 µM | – | – | > 100 | > 100 µM | > 100 µM | > 100 µM | – | – | – | – | – | – | – | – | –
